Results published in patent publication US9765069B2, “Antimicrobial compounds” (OXFORD UNIVERSITY INNOVATION LIMITED, priority 2012, dated 2017).
Converted amounts (≈) assume the structure as drawn.

Tests used:
S1 = experiment: MIC determination (bacteria), strain S1; type: cell-based, S. aureus; settings: Staphylococcus aureus; Table 2; 2-fold broth dilution
Procedure, shortened: (§1)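 Broth microdilution, CLSI M7-A7; MH pH7.4, +2.5% laked horse blood for S. pneumoniae, H.T.M. for H. influenzae; 10^5 cfu/well; 37° C o/n, ambient air; MIC = no visual growth, μg/ml; all compounds per species run in the same experiment.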

S26 = experiment: MIC determination (bacteria), strain S26; type: cell-based, S. aureus; settings: Staphylococcus aureus; Table 2; 2-fold broth dilution
Procedure, shortened: as §1

S4 = experiment: MIC determination (bacteria), strain S4; type: cell-based, S. aureus; settings: Staphylococcus aureus; Table 2; 2-fold broth dilution
Procedure, shortened: as §1

[1] = system: S2 (S. aureus 2, MRSA in vivo); experiment: MIC determination (bacteria), strain S2; type: cell-based; settings: Staphylococcus aureus, MRSA; Table 2; 2-fold broth dilution
Procedure, shortened: as §1

E2 = experiment: MIC determination (bacteria), strain E2; type: cell-based, enterococcus; settings: Enterococcus; Table 2; 2-fold broth dilution
Procedure, shortened: as §1

P1 = experiment: MIC determination (bacteria), strain P1; type: cell-based, S. pneumoniae; settings: Streptococcus pneumoniae; Table 2; 2-fold broth dilution
Procedure, shortened: as §1

P9 = experiment: MIC determination (bacteria), strain P9; type: cell-based, S. pneumoniae; settings: Streptococcus pneumoniae; Table 2; 2-fold broth dilution
Procedure, shortened: as §1

P9B = experiment: MIC determination (bacteria), strain P9B; type: cell-based, S. pneumoniae; settings: Streptococcus pneumoniae; Table 2; 2-fold broth dilution
Procedure, shortened: as §1

H3 = experiment: MIC determination (bacteria), strain H3; type: cell-based, H. influenzae; settings: Haemophilus influenzae; Table 2; haemophilus test medium
Procedure, shortened: as §1

H4 = experiment: MIC determination (bacteria), strain H4; type: cell-based, H. influenzae; settings: Haemophilus influenzae; Table 2 and its footnote f; haemophilus test medium
Procedure, shortened: as §1

[2] = system: human embryonic kidney 293 cells; experiment: in vitro toxicities against human embryonic kidney 293 cells; type: cell-based; settings: human
From the text: (§2) These properties can be determined according to techniques that are well known in the art.

[3] = system: human peripheral blood cells; experiment: in vitro toxicities human peripheral blood cells; type: cell-based; settings: human
From the text: as §2

[4] = system: Hek293 / PMBC versus S. aureus 2, MRSA in vivo; experiment: Selectivity index (LD50 Hek293/PMBC divided by MIC S. aureus 2); type: cell-based; settings: lower LD50 of Hek293 and PMBC (converted to μg/mL) divided by MIC against S. aureus 2, MRSA in vivo
[5] = aqueous solubility at pH 7.4; type: physicochemical; settings: aqueous solubility at pH 7.4 (water with 2% DMSO)
From the text: as §2

E. Coli RNAP = E. Coli RNAP (Escherichia coli, UniProt P0A8T7+P0A8V2); experiment: In vitro activity against E. Coli RNAP; type: biochemical
Sequence of E. Coli RNAP (P0A8V2 whole entry): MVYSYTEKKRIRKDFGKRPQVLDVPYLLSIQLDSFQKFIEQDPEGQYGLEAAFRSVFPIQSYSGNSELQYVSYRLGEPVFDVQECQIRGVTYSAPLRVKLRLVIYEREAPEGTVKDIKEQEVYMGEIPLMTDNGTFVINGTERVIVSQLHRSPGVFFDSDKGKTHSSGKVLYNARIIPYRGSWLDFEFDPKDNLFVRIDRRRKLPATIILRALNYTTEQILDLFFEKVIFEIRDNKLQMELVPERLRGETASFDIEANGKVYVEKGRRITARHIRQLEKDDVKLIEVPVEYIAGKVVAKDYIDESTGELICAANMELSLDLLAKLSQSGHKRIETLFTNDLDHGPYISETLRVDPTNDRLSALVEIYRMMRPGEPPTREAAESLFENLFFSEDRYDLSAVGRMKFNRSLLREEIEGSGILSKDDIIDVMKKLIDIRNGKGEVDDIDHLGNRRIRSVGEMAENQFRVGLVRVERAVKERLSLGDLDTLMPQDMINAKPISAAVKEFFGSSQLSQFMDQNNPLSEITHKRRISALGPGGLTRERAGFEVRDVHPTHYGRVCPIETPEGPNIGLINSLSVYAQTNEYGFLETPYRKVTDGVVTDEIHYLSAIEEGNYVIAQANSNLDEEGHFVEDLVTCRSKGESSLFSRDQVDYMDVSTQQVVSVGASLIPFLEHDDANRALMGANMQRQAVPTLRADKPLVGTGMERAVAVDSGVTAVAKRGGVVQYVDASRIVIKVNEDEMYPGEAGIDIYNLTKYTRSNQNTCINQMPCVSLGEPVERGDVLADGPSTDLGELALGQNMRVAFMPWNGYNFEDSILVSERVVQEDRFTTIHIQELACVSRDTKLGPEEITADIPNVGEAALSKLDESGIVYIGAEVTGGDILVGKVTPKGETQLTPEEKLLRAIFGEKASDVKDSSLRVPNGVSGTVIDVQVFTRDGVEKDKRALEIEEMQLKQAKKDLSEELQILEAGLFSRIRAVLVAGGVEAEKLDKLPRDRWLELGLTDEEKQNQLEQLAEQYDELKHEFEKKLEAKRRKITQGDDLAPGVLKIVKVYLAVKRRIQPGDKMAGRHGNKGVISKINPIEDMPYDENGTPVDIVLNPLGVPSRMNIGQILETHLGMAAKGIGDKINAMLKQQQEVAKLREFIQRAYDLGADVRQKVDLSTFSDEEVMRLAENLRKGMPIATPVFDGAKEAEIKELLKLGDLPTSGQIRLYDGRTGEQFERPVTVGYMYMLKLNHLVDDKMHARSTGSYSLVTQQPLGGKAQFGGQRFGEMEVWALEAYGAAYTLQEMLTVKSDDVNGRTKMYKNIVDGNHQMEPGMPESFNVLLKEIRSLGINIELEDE
Sequence of E. Coli RNAP (P0A8T7 whole entry): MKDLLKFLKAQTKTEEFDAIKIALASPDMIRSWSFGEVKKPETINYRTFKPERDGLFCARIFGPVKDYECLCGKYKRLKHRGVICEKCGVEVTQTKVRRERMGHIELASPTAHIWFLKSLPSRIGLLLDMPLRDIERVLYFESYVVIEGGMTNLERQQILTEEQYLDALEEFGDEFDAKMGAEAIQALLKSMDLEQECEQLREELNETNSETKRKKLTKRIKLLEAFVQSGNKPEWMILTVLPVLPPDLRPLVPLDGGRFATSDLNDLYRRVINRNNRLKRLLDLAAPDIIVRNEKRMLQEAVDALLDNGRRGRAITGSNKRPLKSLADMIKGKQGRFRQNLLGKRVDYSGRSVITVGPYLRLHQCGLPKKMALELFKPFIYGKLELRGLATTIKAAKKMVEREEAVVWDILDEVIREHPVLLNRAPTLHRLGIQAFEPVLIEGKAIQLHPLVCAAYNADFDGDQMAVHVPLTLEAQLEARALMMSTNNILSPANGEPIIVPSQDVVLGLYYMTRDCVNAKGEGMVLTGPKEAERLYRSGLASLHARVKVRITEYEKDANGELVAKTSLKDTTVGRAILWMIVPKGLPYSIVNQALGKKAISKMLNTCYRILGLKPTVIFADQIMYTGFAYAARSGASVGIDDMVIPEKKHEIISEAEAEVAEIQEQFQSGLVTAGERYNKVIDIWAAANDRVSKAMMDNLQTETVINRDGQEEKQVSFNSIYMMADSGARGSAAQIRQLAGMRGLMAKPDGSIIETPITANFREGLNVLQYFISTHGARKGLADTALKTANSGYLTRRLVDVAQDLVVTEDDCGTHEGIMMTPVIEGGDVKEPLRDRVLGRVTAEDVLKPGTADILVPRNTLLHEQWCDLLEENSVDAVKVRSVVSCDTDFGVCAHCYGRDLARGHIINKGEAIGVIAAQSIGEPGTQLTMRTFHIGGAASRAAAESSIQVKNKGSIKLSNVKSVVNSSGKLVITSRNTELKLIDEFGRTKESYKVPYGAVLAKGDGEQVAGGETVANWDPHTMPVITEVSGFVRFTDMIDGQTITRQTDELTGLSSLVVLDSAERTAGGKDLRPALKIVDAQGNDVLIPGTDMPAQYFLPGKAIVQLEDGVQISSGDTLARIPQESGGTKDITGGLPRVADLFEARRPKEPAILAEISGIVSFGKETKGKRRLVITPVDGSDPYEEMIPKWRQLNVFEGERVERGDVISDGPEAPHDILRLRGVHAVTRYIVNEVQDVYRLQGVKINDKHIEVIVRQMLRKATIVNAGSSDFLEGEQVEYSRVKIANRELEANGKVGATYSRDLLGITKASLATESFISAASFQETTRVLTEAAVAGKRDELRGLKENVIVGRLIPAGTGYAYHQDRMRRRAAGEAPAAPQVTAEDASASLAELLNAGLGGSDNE
Sequence of E. Coli RNAP (P0A7Z4 whole entry partner): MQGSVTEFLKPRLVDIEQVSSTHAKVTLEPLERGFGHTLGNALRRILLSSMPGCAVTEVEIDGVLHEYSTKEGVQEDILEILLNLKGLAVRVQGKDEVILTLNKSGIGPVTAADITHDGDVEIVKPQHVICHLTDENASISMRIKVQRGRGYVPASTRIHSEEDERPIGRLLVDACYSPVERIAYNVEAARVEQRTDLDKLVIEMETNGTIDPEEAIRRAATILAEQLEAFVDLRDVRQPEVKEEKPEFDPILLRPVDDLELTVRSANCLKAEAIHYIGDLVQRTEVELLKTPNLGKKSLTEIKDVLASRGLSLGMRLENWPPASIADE
Sequence of E. Coli RNAP (P0A800 whole entry partner): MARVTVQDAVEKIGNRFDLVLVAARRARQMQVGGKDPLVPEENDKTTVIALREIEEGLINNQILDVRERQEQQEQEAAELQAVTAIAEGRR
From the text: as §2

S. aureus membrane = experiment: In vitro activity in depolarization of S. aureus membrane; type: cell-based; settings: Staphylococcus aureus, read-out: DEP (IC50)
From the text: as §2

[6] = system: mammalian_red blood cell membrane; experiment: In vitro mammalian red blood cell membrane lysis activity; type: cell-based; settings: Active or inactive at 100 μM
From the text: as §2

E1 = experiment: MIC determination (bacteria), strain E1; type: cell-based, enterococcus; settings: Enterococcus; Table 2; 2-fold broth dilution
Procedure, shortened: as §1

SMILES: Cc1cc(Cl)ccc1OCCC/C(O)=C1\C(=O)CCN(C(=O)c2ccccc2)C1=O [19d]
- MIC (S1): 2 µg/mL (≈ 4.67 µM)
- MIC (S26): 4 µg/mL (≈ 9.35 µM)
- MIC (S4): 4 µg/mL (≈ 9.35 µM)
- MIC [1]: 4 µg/mL (≈ 9.35 µM)
- MIC (E2): 4 µg/mL (≈ 9.35 µM)
- MIC (P1): 2 µg/mL (≈ 4.67 µM)
- MIC (P9): 1 µg/mL (≈ 2.34 µM)
- MIC (P9B): 4 µg/mL (≈ 9.35 µM)
- MIC (H3): 16 µg/mL (≈ 37.4 µM)
- MIC (H4): 8 µg/mL (≈ 18.7 µM)
- Hek293 (LD50, μM) [2]: 90.9 µM
- PMBC (LD50, μM) [3]: 90.9 µM
- SI (Selectivity index) [4]: 9.7
- SOL [5]: >300 µM

SMILES: CSCCC1C(=O)/C(=C(/O)CC2CC3CCC2C3)C(=O)N1C(=O)CC(C)CC(C)(C)C (stereo not shown) [31g]
- MIC (S1): 0.12 µg/mL (≈ 0.267 µM)
- MIC (S26): 0.5 µg/mL (≈ 1.11 µM)
- MIC (S4): 0.5 µg/mL (≈ 1.11 µM)
- MIC [1]: 0.5 µg/mL (≈ 1.11 µM)
- MIC (E2): 0.25 µg/mL (≈ 0.556 µM)
- MIC (P1): 0.5 µg/mL (≈ 1.11 µM)
- MIC (P9): 0.25 µg/mL (≈ 0.556 µM)
- MIC (P9B): 2 µg/mL (≈ 4.45 µM)
- MIC (H3): 32 µg/mL (≈ 71.2 µM)
- MIC (H4): 2 µg/mL (≈ 4.45 µM)
- IC50 (E. Coli RNAP): > 100 µM
- IC50 (S. aureus membrane): > 100 µM
- RBC membrane lysis activity (active/inactive) [6]: Active
- Hek293 (LD50, μM) [2]: 10.1 µM
- PMBC (LD50, μM) [3]: 30.3 µM
- SI (Selectivity index) [4]: <9.1
- SOL [5]: >300 µM

SMILES: CSCCC1C(=O)/C(=C(/O)CCCOc2ccc(Cl)cc2C)C(=O)N1C(=O)CC(C)CC(C)(C)C (stereo not shown) [31j]
- MIC (S1): 0.5 µg/mL (≈ 0.954 µM)
- MIC (S26): 1 µg/mL (≈ 1.91 µM)
- MIC (S4): 1 µg/mL (≈ 1.91 µM)
- MIC [1]: 0.5 µg/mL (≈ 0.954 µM)
- MIC (E1): 1 µg/mL (≈ 1.91 µM)
- MIC (E2): 0.25 µg/mL (≈ 0.477 µM)
- MIC (P1): 0.5 µg/mL (≈ 0.954 µM)
- MIC (P9): 0.25 µg/mL (≈ 0.477 µM)
- MIC (P9B): 8 µg/mL (≈ 15.3 µM)
- MIC (H3): > 64 µg/mL
- MIC (H4): 8 µg/mL (≈ 15.3 µM)
- IC50 (E. Coli RNAP): 91 µM
- IC50 (S. aureus membrane): > 100 µM
- RBC membrane lysis activity (active/inactive) [6]: Active
- Hek293 (LD50, μM) [2]: 10.1 µM
- PMBC (LD50, μM) [3]: 30.3 µM
- SI (Selectivity index) [4]: <11
- SOL [5]: >300 µM
